Data on 59 compounds can be found in the Kinase Knowledgebase extract (Sharma et al. 2016).

The assay has as its target MAPK14 (human) (UniProt Q16539). The experiment in a line: Inhibition of LPS Stimulated TNF Production by U937 Cells. The following applies: for inhibition: concentration not given here.

MAPK14 (human), sequence (Q16539 whole entry, looked up): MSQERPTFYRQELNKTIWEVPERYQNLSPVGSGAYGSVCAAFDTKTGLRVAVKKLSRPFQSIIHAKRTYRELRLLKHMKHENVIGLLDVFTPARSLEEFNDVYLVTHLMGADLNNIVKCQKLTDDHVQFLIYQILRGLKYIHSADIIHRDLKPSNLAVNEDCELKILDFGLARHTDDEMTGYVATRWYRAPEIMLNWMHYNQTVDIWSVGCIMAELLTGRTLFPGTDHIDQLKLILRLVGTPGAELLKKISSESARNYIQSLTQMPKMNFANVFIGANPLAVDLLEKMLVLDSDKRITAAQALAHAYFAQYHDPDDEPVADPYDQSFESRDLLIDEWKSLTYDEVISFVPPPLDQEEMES

Usually IC50 stands for the concentration that inhibits the measured activity by half. The compound `Fc1cc(-c2c[nH]nc2-c2ccc(F)c(F)c2)ccn1` came in with an IC50 of 0.517 µM.

Usually inhibition stands for how much of the control response was suppressed. Low readings indicate a response near the control, high ones a response far below the control. On to `CCCNC(=O)N[C@H](C)c1[nH]nc(-c2ccc(F)cc2)c1-c1ccncc1`, for which the inhibition turned out to be 55%.

In turn, `COC(=O)CNc1n[nH]c(-c2ccc(F)cc2)c1-c1ccncc1` yielded an IC50 of over 10 µM.

On to `O=C(NCc1[nH]nc(-c2ccc(F)cc2)c1-c1ccncc1)c1ccc([N+](=O)[O-])o1`, for which the inhibition amounted to 100%.

Take `COC(=O)c1ccccc1S(=O)(=O)NCc1[nH]nc(-c2ccc(F)cc2)c1-c1ccncc1`: the IC50 was 4.85 µM.

In turn, `C[C@H](NS(=O)(=O)c1ccc(C(F)(F)F)cc1)c1[nH]nc(-c2ccc(F)cc2)c1-c1ccncc1` gave an inhibition of 86%.

With `Cc1ccccc1S(=O)(=O)N[C@H](C)c1[nH]nc(-c2ccc(F)cc2)c1-c1ccncc1`, the inhibition was found to be 92%.

The compound `CN(C)c1cccc2c(S(=O)(=O)N3CCC(c4[nH]nc(-c5ccc(F)cc5)c4-c4ccncc4)CC3)cccc12` registered an inhibition of 18%.

`C[C@@H](NC(=O)C1CCC1)c1[nH]nc(-c2ccc(F)cc2)c1-c1ccncc1`: the inhibition is 19%.

Turning to `C[C@H](NC(=O)c1cccs1)c1[nH]nc(-c2ccc(F)cc2)c1-c1ccncc1`, the inhibition stood at 21%.

With `C[C@H](NC(=O)c1ccccc1Cl)c1[nH]nc(-c2ccc(F)cc2)c1-c1ccncc1`, the inhibition stood at 48%.

In turn, `C[C@H](NC(=O)[C@H]1CCCN1)c1[nH]nc(-c2ccc(F)cc2)c1-c1ccncc1` gave an inhibition of 20%.

For the compound `Cc1ccc(C)c(S(=O)(=O)N[C@@H](C)c2[nH]nc(-c3ccc(F)cc3)c2-c2ccncc2)c1`, the inhibition was determined as 80%.

In turn, `CC(C)NC(=O)NCc1[nH]nc(-c2ccc(F)cc2)c1-c1ccncc1` showed an IC50 of 10 µM.

Regarding `CC1(C)[C@H]2CC[C@@]1(CS(=O)(=O)NCc1[nH]nc(-c3ccc(F)cc3)c1-c1ccncc1)C(=O)C2`, the inhibition was determined as 20%.

In turn, `C[C@@H](NS(=O)(=O)C(F)(F)F)c1[nH]nc(-c2ccc(F)cc2)c1-c1ccncc1` returned an inhibition of 18%.

`O=S(=O)(NCc1[nH]nc(-c2ccc(F)cc2)c1-c1ccncc1)c1ccc(F)c(Cl)c1` showed an inhibition of 78%.

As to `CSCCC(=O)NCc1[nH]nc(-c2ccc(F)cc2)c1-c1ccncc1`, the inhibition came to 13%.

For `C=CCNC(=O)N[C@H](C)c1[nH]nc(-c2ccc(F)cc2)c1-c1ccncc1`, the inhibition is 48%.

The compound `O=C(NCc1[nH]nc(-c2ccc(F)cc2)c1-c1ccncc1)Nc1ccccc1-c1ccccc1` registered an inhibition of 2%.

Take `C[C@H](NS(=O)(=O)c1cccc2c(N(C)C)cccc12)c1[nH]nc(-c2ccc(F)cc2)c1-c1ccncc1`: the inhibition was found to be 68%.

For `COC(=O)CCC(=O)NCc1[nH]nc(-c2ccc(F)cc2)c1-c1ccncc1`, the IC50 was 10 µM.

Compound `Cc1ccc(S(C)(=O)=O)cc1S(=O)(=O)N[C@@H](C)c1[nH]nc(-c2ccc(F)cc2)c1-c1ccncc1` displayed an inhibition of 78%.

In turn, `CN(C)CCCNC(=O)NCCCc1[nH]nc(-c2ccc(F)cc2)c1-c1ccncc1` showed an IC50 of over 1 µM.

In turn, `CC(C)c1cc(C(C)C)c(C(=O)N[C@H](C)c2[nH]nc(-c3ccc(F)cc3)c2-c2ccncc2)c(C(C)C)c1` gave an inhibition of 31%.

In turn, `O=C(N[C@H](Cc1ccccc1)c1[nH]nc(-c2ccc(F)cc2)c1-c1ccncc1)c1ccccn1` registered an IC50 of over 1 µM and an inhibition of 8%.

For the compound `O=C(NCc1[nH]nc(-c2ccc(F)cc2)c1-c1ccncc1)C(F)(F)F`, the inhibition stood at 67%.

As to `CCc1n[nH]c(-c2ccccc2)c1-c1ccncc1`, the 50% inhibitory concentration (IC50) amounted to 0.243 µM.

On to `CC(Nc1cc(-c2c[nH]nc2-c2ccc(F)cc2)ccn1)c1ccc(F)cc1` (stereo not given), for which the IC50 worked out at 0.0044 µM.

Compound `Cc1cc(C)c(S(=O)(=O)N[C@@H](C)c2[nH]nc(-c3ccc(F)cc3)c2-c2ccncc2)c(C)c1` returned an inhibition of 87%.

For `C[C@H](NC(=O)Nc1ccc(F)cc1)c1[nH]nc(-c2ccc(F)cc2)c1-c1ccncc1`, the inhibition worked out at 26%.

On to `C[C@H](NC(=O)c1ccc(F)c(F)c1)c1[nH]nc(-c2ccc(F)cc2)c1-c1ccncc1`, for which the inhibition turned out to be 52%.

`O=S(=O)(c1ccccc1)N1CCC(c2[nH]nc(-c3ccc(F)cc3)c2-c2ccncc2)CC1` gave an inhibition of 21%.

In the case of `CC(C)COC(=O)NCc1[nH]nc(-c2ccc(F)cc2)c1-c1ccncc1`, the IC50 was determined as 0.72 µM.

In turn, `C[C@H](NC(=O)c1cccc(C#N)c1)c1[nH]nc(-c2ccc(F)cc2)c1-c1ccncc1` gave an inhibition of 22%.

`Cn1cc(-c2ccnc(F)c2)c(-c2ccc(F)c(F)c2)n1` had an IC50 of 1.28 µM.

Consider `Cc1ccccc1S(=O)(=O)N[C@@H](C)c1[nH]nc(-c2ccc(F)cc2)c1-c1ccncc1`, for which the inhibition is 94%.

`CC1(C)[C@@H]2CC[C@]1(S(=O)(=O)NCCc1[nH]nc(-c3ccc(F)cc3)c1-c1ccncc1)C(=O)C2` came in with an inhibition of 56%.

Regarding `CNC(=O)CC[C@H](NC(=O)COC)c1[nH]nc(-c2ccc(F)cc2)c1-c1ccncc1`, the concentration for half-maximal inhibition (IC50) is over 1 µM.

For `C[C@@H](NC(=O)c1cccc(C(F)(F)F)c1)c1[nH]nc(-c2ccc(F)cc2)c1-c1ccncc1`, the inhibition came to 25%.

Compound `Cc1n[nH]c(-c2ccc(N(C)C)cc2)c1-c1ccncc1` came in with an IC50 of 0.099 µM.

Regarding `COc1ccccc1CCNC(=O)Cn1nc(-c2ccc(F)cc2)c(-c2ccncc2)c1C`, the inhibition was determined as 36%.

`C[C@@H](NS(C)(=O)=O)c1[nH]nc(-c2ccc(F)cc2)c1-c1ccncc1` gave a concentration for half-maximal inhibition (IC50) of 0.44 µM.

In turn, `C[C@@H](NS(=O)(=O)c1ccccc1C#N)c1[nH]nc(-c2ccc(F)cc2)c1-c1ccncc1` yielded an inhibition of 81%.

In turn, `CC(=O)O[C@@H](C)C(=O)NCc1[nH]nc(-c2ccc(F)cc2)c1-c1ccncc1` gave a half-maximal inhibitory concentration (IC50) of 6.51 µM.

`C[C@@H](NS(=O)(=O)c1cccc(C(F)(F)F)c1)c1[nH]nc(-c2ccc(F)cc2)c1-c1ccncc1` registered an inhibition of 97%.

For `NC(=O)NCc1[nH]nc(-c2ccc(F)cc2)c1-c1ccncc1`, the inhibition is 50%.

In turn, `CN(C)CCNC(=O)NCCCc1[nH]nc(-c2ccc(F)cc2)c1-c1ccncc1` registered an inhibition of 11%.

As for `COc1cccc(CC(=O)N[C@@H](C)c2[nH]nc(-c3ccc(F)cc3)c2-c2ccncc2)c1`, the inhibition was found to be 14%.

`C[C@@H](NC(=O)c1c(Cl)cccc1Cl)c1[nH]nc(-c2ccc(F)cc2)c1-c1ccncc1`: the inhibition is 87%.

For `CC(C)=CC(=O)N[C@@H](C)c1[nH]nc(-c2ccc(F)cc2)c1-c1ccncc1`, the inhibition was 21%.

Consider `CN(C)CCn1cc(-c2ccnc(CCc3ccc(F)cc3)c2)c(-c2ccc(F)cc2)n1`, for which the 50% inhibitory concentration (IC50) was over 10 µM.

`COc1ccc(Br)cc1S(=O)(=O)N1CCC(c2[nH]nc(-c3ccc(F)cc3)c2-c2ccncc2)CC1`: the inhibition turned out to be 36%.

The compound `O=C(NCc1[nH]nc(-c2ccc(F)cc2)c1-c1ccncc1)c1c(F)cccc1F` gave an inhibition of 48%.

In turn, `Cc1n[nH]c(-c2ccc3c(c2)OCO3)c1-c1ccncc1` had a half-maximal inhibitory concentration (IC50) of 1.69 µM.

`CCCCOc1ccc(C(=O)NCc2[nH]nc(-c3ccc(F)cc3)c2-c2ccncc2)cc1`: the inhibition stood at 66%.

On to `CCCC(CCC)C(=O)NCc1[nH]nc(-c2ccc(F)cc2)c1-c1ccncc1`, for which the inhibition worked out at 29%.

For `C[C@@H](NS(=O)(=O)c1cc(Cl)c(Cl)s1)c1[nH]nc(-c2ccc(F)cc2)c1-c1ccncc1`, the inhibition was found to be 75%.

The compound `Fc1ccc(-c2nn(CCN3CCOCC3)cc2-c2ccncc2)cc1` gave an IC50 of 1.83 µM.
